Consider 13 molecules from patent US8748430B2, “Pyrrolidin-3yl-methylamine quinoxaline derivatives” (Hoffmann-La Roche Inc, priority 2008, dated 2014).

The target of the experiment is T1, human orexin-2 (hOX2) receptor (Homo sapiens, UniProt O43614).
T1 construct: expressed in transfected cells
T1 sequence (O43614 1-444): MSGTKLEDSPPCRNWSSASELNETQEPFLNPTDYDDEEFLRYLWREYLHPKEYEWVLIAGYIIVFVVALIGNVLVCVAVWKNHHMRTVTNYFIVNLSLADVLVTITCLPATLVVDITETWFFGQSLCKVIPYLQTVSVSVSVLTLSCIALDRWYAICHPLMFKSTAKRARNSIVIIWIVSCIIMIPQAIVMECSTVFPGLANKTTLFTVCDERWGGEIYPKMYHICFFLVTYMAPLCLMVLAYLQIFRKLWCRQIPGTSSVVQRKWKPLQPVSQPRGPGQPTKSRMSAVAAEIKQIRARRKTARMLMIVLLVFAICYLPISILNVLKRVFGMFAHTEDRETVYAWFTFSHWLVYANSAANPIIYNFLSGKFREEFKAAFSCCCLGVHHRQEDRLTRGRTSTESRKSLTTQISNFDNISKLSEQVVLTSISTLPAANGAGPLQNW
Kind of experiment: Intracellular Ca2+ mobilization assay (FLIPR), antagonism of orexin-A at EC80. The experiment is classed as cell-based. The note with it: CHO(dHFr-) cells stably expressing hOX2; orexin-A at EC80 as agonist; antagonist applied 25 min before; Kb=IC50/(1+[A]/EC50); read-out: Kb (μM) OX2R (human). As for the experimental part: Intracellular Ca^2+ Mobilization Assay
The Chinese Hamster Ovary (dHFr-) mutant cell line stably expressing human orexin-1 (hOX1) or human orexin-2 (hOX2) receptors were maintained in Dulbecco's Modified Eagle Medium (1×) with GlutaMax™1, 4500 mg/L D-Glucose and Sodium Pyruvate (Catalog No. 31966-021, Invitrogen, Carlsbad, Calif.), 5% dialyzed fetal calf serum (Catalog No. 26400-044), 100 μg/ml penicillin and 100 μg/ml streptomycin. The cells were seeded at 5×10^4 cells/well in the poly-D-lysine treated, 96-well, black/clear-bottomed plates (Catalog No. BD356640, BD Biosciences, Palo Alto, Calif.). 24 h later, the cells were loaded for 1 h at 37° C. with 4 μM Flou-4 acetoxymethyl ester (Catalog No. F-14202, Molecular Probes, Eugene, Oreg.) in FLIPR buffer (1×HBSS, 20 mM HEPES, 2.5 mM Probenecid). Hanks' Balanced Salt Solution (HBSS) (10×) (catalog No. 14065-049) and HEPES (1M) (catalog No. 15630-056) were purchased from Invitrogen, Carlsbad, Calif. Probenecid (250 mM) (catalog No. P8761) was from Sigma, Buchs, Switzerland. The cells were washed five times with FLIPR buffer to remove excess dye and intracellular calcium mobilization, [Ca^2+]i were measured using a Fluorometric Imaging Plate Reader (FLIPR-96, Molecular Devices, Menlo Park, Calif.) as described previously (Malherbe et al., Mol. Pharmacol., 64, 823-832, 2003). Orexin A (catalog No. 1455, Toris Cookson Ltd, Bristol, UK) was used as agonist. Orexin A ([…] stock solution in DMSO) was diluted in FLIPR buffer+0.1% BSA. The EC50 and EC80 values of orexin-A were measured daily from standard agonist concentration-response curves in CHO(dHFr-)-OX1R and -OX2R cell lines. All compounds were dissolved in 100% DMSO. Inhibition curves were determined by addition of 11 concentrations (0.0001-10 μM) of inhibitory compounds and using EC80 value of orexin-A as agonist (a concentration which gave 80% of max agonist response, determined daily). The antagonists were applied 25 min (incubation at 37° C.) before the application of the agonist. Responses were measured as peak increase in fluorescence minus basal, normalized to the maximal stimulatory effect induced by EC80 value of orexin-A or orexin-B. Inhibition curves were fitted according to the Hill equation: y=100/(1+(x/IC50)^nH), where nH=slope factor using Excel-fit 4 software (Microsoft). Kb values were calculated according to the following equation Kb=IC50/(1+[A]/EC50) where A is the concentration of agonist added which is very close to agonist EC80 value, and IC50 and EC50 values were derived from the antagonist inhibition and orexin-A or B agonist curves, respectively.
Broadly, the Kb is the equilibrium dissociation constant of an antagonist, usually derived from a functional assay. Take `Cc1ccc(C(F)(F)F)c(C(=O)N2CC[C@@H](CNc3nc4ccc(Cl)cc4o3)C2)c1` [Example 14, {(S)-3-[(6-Chloro-benzooxazol-2-ylamino)-methyl]-pyrrolidin-1-yl}-(5-methyl-2-trifluoromethyl-phenyl)-methanone]: the Kb was 0.304 µM.
As for `Cc1onc(-c2ccccc2)c1C(=O)N1CC[C@@H](CNc2nc3ccc(Cl)cc3o2)C1` [Example 15, {(S)-3-[(6-Chloro-benzooxazol-2-ylamino)-methyl]-pyrrolidin-1-yl}-(5-methyl-3-phenyl-isoxazol-4-yl)-methanone], the figure is 0.0819 µM; as for `O=C(c1cnoc1-c1ccccc1)N1CC[C@@H](CNc2nc3ccc(Cl)cc3o2)C1` [Example 16, {(S)-3-[(6-Chloro-benzooxazol-2-ylamino)-methyl]-pyrrolidin-1-yl}-(5-phenyl-isoxazol-4-yl)-methanone], 0.147 µM; as for `Cc1ccc(Cl)c(C(=O)N2CC[C@@H](CNc3nc4ccc(Cl)cc4o3)C2)c1` [Example 17, {(S)-3-[(6-Chloro-benzooxazol-2-ylamino)-methyl]-pyrrolidin-1-yl}-(2-chloro-5-methyl-phenyl)-methanone], 0.565 µM.
`COc1ccc(C)cc1C(=O)N1CC[C@@H](CNc2nc3ccc(Cl)cc3o2)C1` [Example 18, {(S)-3-[(6-Chloro-benzooxazol-2-ylamino)-methyl]-pyrrolidin-1-yl}-(2-methoxy-5-methyl-phenyl)-methanone]: the Kb is 0.355 µM.
As to `O=C(c1ccccc1OC(F)(F)F)N1CC[C@@H](CNc2nc3cccc(F)c3o2)C1` [Example 19, {(S)-3-[(7-Fluoro-benzooxazol-2-ylamino)-methyl]-pyrrolidin-1-yl}-(2-trifluoromethoxy-phenyl)-methanone], the Kb worked out at 0.69 µM.
As for `O=C(c1ccccc1OC(F)(F)C(F)F)N1CC[C@@H](CNc2nc3cccc(F)c3o2)C1` [Example 20, {(S)-3-[(7-Fluoro-benzooxazol-2-ylamino)-methyl]-pyrrolidin-1-yl}-[2-(1,1,2,2-tetrafluoro-ethoxy)-phenyl]-methanone], the Kb worked out at 0.0772 µM.
With `Cc1ccc(C(F)(F)F)c(C(=O)N2CC[C@@H](CNc3nc4cccc(F)c4o3)C2)c1` [Example 21, {(S)-3-[(7-Fluoro-benzooxazol-2-ylamino)-methyl]-pyrrolidin-1-yl}-(5-methyl-2-trifluoromethyl-phenyl)-methanone], the antagonist equilibrium constant (Kb) amounted to 0.396 µM.
Regarding `Cc1onc(-c2ccccc2)c1C(=O)N1CC[C@@H](CNc2nc3cccc(F)c3o2)C1` [Example 22, {(S)-3-[(7-Fluoro-benzooxazol-2-ylamino)-methyl]-pyrrolidin-1-yl}-(5-methyl-3-phenyl-isoxazol-4-yl)-methanone], the Kb amounted to 0.0566 µM.
As for `O=C(c1cnoc1-c1ccccc1)N1CC[C@@H](CNc2nc3cccc(F)c3o2)C1` [Example 23, {(S)-3-[(7-Fluoro-benzooxazol-2-ylamino)-methyl]-pyrrolidin-1-yl}-(5-phenyl-isoxazol-4-yl)-methanone], the figure is 0.123 µM; as for `Cc1ccc(Cl)c(C(=O)N2CC[C@@H](CNc3nc4cccc(F)c4o3)C2)c1` [Example 24, (2-Chloro-5-methyl-phenyl)-{(S)-3-[(7-fluoro-benzooxazol-2-ylamino)-methyl]-pyrrolidin-1-yl}-methanone], 0.754 µM.
In the case of `COc1ccc(C)cc1C(=O)N1CC[C@@H](CNc2nc3cccc(F)c3o2)C1` [Example 25, {(S)-3-[(7-Fluoro-benzooxazol-2-ylamino)-methyl]-pyrrolidin-1-yl}-(2-methoxy-5-methyl-phenyl)-methanone], the Kb stood at 0.675 µM.
Take `O=C(c1ccccc1OC(F)(F)F)N1CC[C@@H](CNc2cnc3cc(Cl)ccc3n2)C1` [Example 26, {(S)-3-[(6-Chloro-quinoxalin-2-ylamino)-methyl]-pyrrolidin-1-yl}-(2-trifluoromethoxy-phenyl)-methanone]: the Kb was found to be 0.178 µM.
